For one test, the target named is human αVβ3 (Homo sapiens, UniProt P05106+P06756). The test is described as follows: human αVβ3 HTRF binding assay. How it is done:
(§1) All binding assays used the HTRF (homogeneous time resolved fluorescence) technology from Cisbio International, therefore all assays are described as HTRF binding assays. The assay results for the Examples are listed above together with the characterization data. The HTRF binding assays are established for the following integrins: human αVβ6, human αVβ1, human αVβ3, human αVβ5, and human αVβ8. All assays used the following assay buffer: 20 mM Tris, pH 7.4, 1 mM MgCl2, 1 mM MnCl2, 0.01% Tween 20, and 0.01% BSA. Alternatively, a SPA-based assay was used for evaluation of receptor binding.
(§2) The following describes the components and a representative procedure for the human αVβ6 HTRF binding assay: Recombinant human αVβ6 Integrin (R & D systems, 3817-AV) was biotinylated. Biotinylated human αVβ6 Integrin was added to assay vessel at a final concentration of 1.25 nM. FITC-conjugated fibronectin (Cytoskeleton, FNR02) was then added at the final concentration of 5 nM. The mixture was centrifuged at 600 rpm for three minutes using Thermo Fisher Heraeus Multifuge X3 centrifuge and then incubated at room temperature for an hour. Streptavidin Terbium (Cisbio international 610STLB) was then added at the final concentration of 0.625 nM. The resulting mixture was centrifuged at 600 rpm for three minutes using Thermo Fisher Heraeus Multifuge X3 centrifuge and then incubated at room temperature overnight in dark before reading HTRF signals. […]
A general note: In TR-FRET formats the signal depends on donor and acceptor labels being close together.

Another test addresses human αVβ8 (Homo sapiens, UniProt P06756+P26012). The test is described as follows: human αVβ8 HTRF binding assay. How it is done: as §1, §2
For a further test, the target named is human αVβ5 (Homo sapiens, UniProt P06756+P18084). The test is described as follows: human αVβ5 HTRF binding assay. How it is done:
as §1, §2

The target of another test is human αVβ1 (Homo sapiens, UniProt P05556+P06756). The test is described as follows: human αVβ1 HTRF binding assay. How it is done:
as §1
The following describes the components and a representative procedure for the human αVβ6 HTRF binding assay: Recombinant human αVβ6 Integrin (R & D systems, 3817-AV) was biotinylated. Biotinylated human αVβ6 Integrin was added to assay vessel at a final concentration of 1.25 nM. FITC-conjugated fibronectin (Cytoskeleton, FNR02) was then added at the final concentration of 5 nM. The mixture was centrifuged at 600 rpm for three minutes using Thermo Fisher Heraeus Multifuge X3 centrifuge and then incubated at room temperature for an hour. Streptavidin Terbium (Cisbio international 610STLB) was then added at the final concentration of 0.625 nM. The resulting mixture was centrifuged at 600 rpm for three minutes using Thermo Fisher Heraeus Multifuge X3 centrifuge and then incubated at room temperature overnight in dark before reading HTRF signals.
The SPA-based assay was carried out according to the protocol and procedures similar to the ones described in the following reference with appropriate modifications to agents and ligands which are readily understood by one skilled in the art: Pachter J A, Zhang R, Mayer-Ezell R., “Scintillation proximity assay to measure binding of soluble fibronectin to antibody-captured αVβ1 integrin” Anal Biochem. 1995 Sep. 1; 230(1):101-7.

In the next test the target is T1, human αVβ6 (Homo sapiens, UniProt P06756+P18564).
T1 construct: purchased R & D systems 3817-AV
T1 sequence (P06756 31-992 limits assumed): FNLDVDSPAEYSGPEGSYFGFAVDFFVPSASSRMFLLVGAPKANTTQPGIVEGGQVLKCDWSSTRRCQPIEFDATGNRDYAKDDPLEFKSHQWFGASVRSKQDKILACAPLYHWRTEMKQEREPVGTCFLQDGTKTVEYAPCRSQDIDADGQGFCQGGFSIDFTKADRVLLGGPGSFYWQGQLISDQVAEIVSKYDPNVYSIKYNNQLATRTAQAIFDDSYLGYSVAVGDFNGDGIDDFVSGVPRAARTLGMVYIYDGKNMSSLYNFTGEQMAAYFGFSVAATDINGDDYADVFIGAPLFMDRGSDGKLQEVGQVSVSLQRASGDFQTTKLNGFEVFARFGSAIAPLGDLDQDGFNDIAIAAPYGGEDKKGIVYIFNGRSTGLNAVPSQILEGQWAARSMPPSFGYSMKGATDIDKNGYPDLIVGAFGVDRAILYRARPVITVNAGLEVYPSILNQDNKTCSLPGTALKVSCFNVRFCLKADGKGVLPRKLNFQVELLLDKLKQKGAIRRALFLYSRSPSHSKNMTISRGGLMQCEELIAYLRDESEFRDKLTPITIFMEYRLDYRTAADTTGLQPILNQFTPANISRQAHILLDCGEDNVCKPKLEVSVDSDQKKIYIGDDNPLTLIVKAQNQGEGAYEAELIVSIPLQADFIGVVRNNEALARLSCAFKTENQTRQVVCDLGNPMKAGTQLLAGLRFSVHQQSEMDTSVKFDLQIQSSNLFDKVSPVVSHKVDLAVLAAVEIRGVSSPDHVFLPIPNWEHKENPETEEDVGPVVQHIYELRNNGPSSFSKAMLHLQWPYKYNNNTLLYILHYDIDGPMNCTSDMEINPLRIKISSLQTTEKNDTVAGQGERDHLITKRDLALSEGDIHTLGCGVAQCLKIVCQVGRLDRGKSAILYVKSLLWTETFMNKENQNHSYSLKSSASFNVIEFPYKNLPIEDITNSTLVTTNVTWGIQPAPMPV
T1 sequence (P18564 22-707 limits assumed): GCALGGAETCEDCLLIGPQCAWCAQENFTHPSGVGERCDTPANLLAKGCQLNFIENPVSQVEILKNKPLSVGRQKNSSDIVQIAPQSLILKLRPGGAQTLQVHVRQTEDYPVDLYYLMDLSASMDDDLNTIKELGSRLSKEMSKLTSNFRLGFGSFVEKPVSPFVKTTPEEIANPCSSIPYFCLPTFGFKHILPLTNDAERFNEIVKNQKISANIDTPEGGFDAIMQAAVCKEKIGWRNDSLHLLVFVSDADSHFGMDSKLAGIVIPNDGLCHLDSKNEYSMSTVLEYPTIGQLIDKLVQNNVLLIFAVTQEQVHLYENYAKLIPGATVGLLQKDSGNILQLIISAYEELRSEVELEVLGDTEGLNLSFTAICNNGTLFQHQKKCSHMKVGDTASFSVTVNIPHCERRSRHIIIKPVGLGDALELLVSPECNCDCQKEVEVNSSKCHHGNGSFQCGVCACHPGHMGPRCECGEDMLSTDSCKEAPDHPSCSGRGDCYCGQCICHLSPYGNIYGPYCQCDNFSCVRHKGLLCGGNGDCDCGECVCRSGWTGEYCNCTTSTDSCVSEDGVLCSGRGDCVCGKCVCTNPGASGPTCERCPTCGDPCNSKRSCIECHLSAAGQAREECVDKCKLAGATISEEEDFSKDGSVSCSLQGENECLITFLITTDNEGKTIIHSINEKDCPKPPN
The test is described as follows: human αVβ6 HTRF binding assay. As to conditions: recombinant human αVβ6 integrin, FITC-conjugated fibronectin. The procedure, abridged:
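HTRF binding in 20 mM Tris pH 7.4 with 1 mM MgCl2, 1 mM MnCl2, 0.01% Tween 20 and 0.01% BSA. For αVβ6, biotinylated integrin (1.25 nM) and FITC-fibronectin (5 nM) were incubated 1 h at RT, then streptavidin-terbium (0.625 nM) was added overnight in the dark. An SPA-based fibronectin binding format was an alternative.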

Where a name gives a salt, the structure may show the parent alone.

For orientation: IC50 means the concentration that gives 50% inhibition.

Sequence of human αVβ8 (P06756 31-992 limits assumed): as the sequence (P06756 31-992 limits assumed) above
Sequence of human αVβ8 (P26012 43-684 limits assumed): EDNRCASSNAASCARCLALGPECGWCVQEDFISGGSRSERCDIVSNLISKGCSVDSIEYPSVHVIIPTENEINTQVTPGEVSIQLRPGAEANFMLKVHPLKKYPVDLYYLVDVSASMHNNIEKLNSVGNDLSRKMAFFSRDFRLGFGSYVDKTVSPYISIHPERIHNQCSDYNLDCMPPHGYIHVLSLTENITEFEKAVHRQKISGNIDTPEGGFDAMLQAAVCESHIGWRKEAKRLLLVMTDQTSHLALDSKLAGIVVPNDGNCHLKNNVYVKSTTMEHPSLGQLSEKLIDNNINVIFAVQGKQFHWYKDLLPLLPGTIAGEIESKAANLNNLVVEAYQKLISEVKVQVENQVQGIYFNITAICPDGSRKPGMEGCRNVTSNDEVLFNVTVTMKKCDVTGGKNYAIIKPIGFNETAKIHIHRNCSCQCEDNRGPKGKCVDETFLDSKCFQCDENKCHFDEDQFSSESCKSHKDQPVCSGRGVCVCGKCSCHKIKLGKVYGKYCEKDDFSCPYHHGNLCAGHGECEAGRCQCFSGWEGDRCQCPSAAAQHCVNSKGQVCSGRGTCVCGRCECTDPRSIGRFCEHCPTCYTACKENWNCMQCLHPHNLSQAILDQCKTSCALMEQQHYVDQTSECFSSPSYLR
Sequence of human αVβ5 (P06756 31-992 limits assumed): as the sequence (P06756 31-992 limits assumed) above
Sequence of human αVβ5 (P18084 24-719 limits assumed): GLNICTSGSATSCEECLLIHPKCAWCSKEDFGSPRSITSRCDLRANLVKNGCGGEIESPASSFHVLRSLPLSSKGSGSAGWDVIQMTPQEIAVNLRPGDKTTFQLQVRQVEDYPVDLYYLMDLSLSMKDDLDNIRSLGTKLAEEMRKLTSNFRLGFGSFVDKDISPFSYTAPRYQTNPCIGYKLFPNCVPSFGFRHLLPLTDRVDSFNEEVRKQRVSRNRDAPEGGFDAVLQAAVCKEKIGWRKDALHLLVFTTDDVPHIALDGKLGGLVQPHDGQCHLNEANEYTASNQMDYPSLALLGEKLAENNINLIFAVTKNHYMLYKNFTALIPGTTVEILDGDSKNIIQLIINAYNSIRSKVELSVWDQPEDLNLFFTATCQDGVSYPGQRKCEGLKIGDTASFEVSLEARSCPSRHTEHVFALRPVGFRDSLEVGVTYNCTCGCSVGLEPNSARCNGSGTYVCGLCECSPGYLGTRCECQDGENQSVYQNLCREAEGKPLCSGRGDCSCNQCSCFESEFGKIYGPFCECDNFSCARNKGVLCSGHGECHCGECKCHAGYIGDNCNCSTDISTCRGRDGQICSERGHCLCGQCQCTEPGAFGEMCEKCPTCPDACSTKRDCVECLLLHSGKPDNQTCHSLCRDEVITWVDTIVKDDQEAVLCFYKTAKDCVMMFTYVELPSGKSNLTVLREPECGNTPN
Sequence of human αVβ1 (P06756 31-992 limits assumed): as the sequence (P06756 31-992 limits assumed) above
Sequence of human αVβ1 (P05556 21-728 limits assumed): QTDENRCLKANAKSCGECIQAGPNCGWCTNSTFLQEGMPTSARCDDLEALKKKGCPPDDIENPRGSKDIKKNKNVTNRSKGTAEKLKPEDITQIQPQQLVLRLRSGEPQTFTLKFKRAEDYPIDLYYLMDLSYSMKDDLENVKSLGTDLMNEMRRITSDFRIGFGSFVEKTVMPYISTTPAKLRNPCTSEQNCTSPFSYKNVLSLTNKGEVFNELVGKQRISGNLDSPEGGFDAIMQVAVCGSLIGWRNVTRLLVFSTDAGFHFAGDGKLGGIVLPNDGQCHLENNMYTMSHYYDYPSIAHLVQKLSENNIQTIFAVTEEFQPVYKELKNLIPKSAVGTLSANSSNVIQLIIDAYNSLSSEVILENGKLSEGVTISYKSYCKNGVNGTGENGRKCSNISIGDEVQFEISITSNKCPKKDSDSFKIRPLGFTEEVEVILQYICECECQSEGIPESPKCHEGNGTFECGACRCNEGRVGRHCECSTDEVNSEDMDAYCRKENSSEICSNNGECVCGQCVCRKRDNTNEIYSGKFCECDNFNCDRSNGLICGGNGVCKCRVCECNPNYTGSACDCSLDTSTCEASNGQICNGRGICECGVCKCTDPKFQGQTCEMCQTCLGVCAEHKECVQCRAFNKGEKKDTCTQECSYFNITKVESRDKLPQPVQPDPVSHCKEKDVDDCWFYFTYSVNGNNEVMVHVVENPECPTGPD
Sequence of human αVβ3 (P06756 31-992 limits assumed): as the sequence (P06756 31-992 limits assumed) above
Sequence of human αVβ3 (P05106 27-718 limits assumed): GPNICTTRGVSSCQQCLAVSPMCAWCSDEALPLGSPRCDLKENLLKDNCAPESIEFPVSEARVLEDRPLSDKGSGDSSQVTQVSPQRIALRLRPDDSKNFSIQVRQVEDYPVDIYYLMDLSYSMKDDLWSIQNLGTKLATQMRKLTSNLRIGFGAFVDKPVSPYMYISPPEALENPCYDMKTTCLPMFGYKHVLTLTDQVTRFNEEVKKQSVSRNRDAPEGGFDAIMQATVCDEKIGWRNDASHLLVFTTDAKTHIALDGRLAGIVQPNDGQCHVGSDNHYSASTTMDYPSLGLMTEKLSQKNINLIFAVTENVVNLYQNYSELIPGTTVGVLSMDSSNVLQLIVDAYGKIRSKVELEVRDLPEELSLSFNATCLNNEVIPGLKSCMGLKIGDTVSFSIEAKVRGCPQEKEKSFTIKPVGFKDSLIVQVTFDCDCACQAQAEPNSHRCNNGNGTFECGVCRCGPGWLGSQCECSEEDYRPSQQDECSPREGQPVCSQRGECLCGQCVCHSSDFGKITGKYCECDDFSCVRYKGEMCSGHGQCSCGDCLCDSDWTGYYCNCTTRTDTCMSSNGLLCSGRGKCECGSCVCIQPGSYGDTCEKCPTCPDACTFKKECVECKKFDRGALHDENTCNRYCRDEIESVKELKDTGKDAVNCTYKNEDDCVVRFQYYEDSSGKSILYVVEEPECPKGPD

For `COc1ccc([C@H](CC(=O)O)n2ncc3cc(OCCc4ccc5c(n4)NCCC5)ccc32)cn1` [Example 41, (S)-3-(6-Methoxypyridin-3-yl)-3-(5-(2-(5,6,7,8-tetrahydro-1,8-naphthyridin-2-yl)ethoxy)-1H-indazol-1-yl)propanoic acid], the IC50 on human αVβ3 stood at 0.0023 µM; on human αVβ8, 0.51 µM; at human αVβ5 it was 0.00022 µM; on human αVβ1, 0.083 µM; at human αVβ6 it was 0.0062 µM.

On to `O=C(O)C[C@@H](c1cnc2ccccc2c1)n1cc2ccc(CCCc3ccc4c(n3)NCCC4)cc2n1` [Example 87, (S)-3-(Quinolin-3-yl)-3-(6-(3-(5,6,7,8-tetrahydro-1,8-naphthyridin-2-yl)propyl)-2H-indazol-2-yl)propanoic acid], for which the IC50 on human αVβ3 was found to be 0.0023 µM; at human αVβ8, 3.3 µM; on human αVβ5, 0.0032 µM; at human αVβ1, 10 µM; at human αVβ6 it was 0.0013 µM.

In the case of `COc1ncc([C@H](CC(=O)O)n2cc3ccc(CCc4ccc5c(n4)NCCC5)cc3n2)cn1` [Example 118, (5)-3-(2-Methoxypyrimidin-5-yl)-3-(6-(2-(5,6,7,8-tetrahydro-1,8-naphthyridin-2-yl)ethyl)-2H-indazol-2-yl)propanoic acid], the half-inhibitory concentration (IC50) on human αVβ3 turned out to be 0.002 µM; on human αVβ8, 3.1 µM; at human αVβ5 it was 0.0011 µM; on human αVβ1, 4.3 µM; at human αVβ6, 0.012 µM.

As for `O=C(O)C[C@@H](c1cncc(CO)c1)n1ncc2cc(OCCc3ccc4c(n3)NCCC4)ccc21` [Example 100, (5)-3-(5-(Hydroxymethyl)pyridin-3-yl)-3-(5-(2-(5,6,7,8-tetrahydro-1,8-naphthyridin-2-yl)ethoxy)-1H-indazol-1-yl)propanoic acid], the IC50 at human αVβ3 is 0.0029 µM; on human αVβ8 it was 4.4 µM; at human αVβ5, 0.00041 µM; at human αVβ1, 0.14 µM; at human αVβ6, 0.014 µM.

With `Cn1ncc2cc(C(CC(=O)O)n3ncc4cc(OCCc5ccc6c(n5)NCCC6)ccc43)cnc21` (centres unmarked) [Example 117, 3-(1-Methyl-1H-pyrazolo[3,4-b]pyridin5-yl)-3-(5-(2-(5,6,7,8-tetrahydro-1,8-naphthyridin-2-yl)ethoxy)-1H-indazol-1-yl)propanoic acid, 2 TFA], the IC50 at human αVβ3 was determined as 0.0016 µM; at human αVβ8 it was 2.2 µM; on human αVβ5 it was 0.00046 µM; on human αVβ1 it was 0.063 µM; on human αVβ6 it was 0.019 µM.

On to `O=C(O)CC(c1cncc(C2OCCO2)c1)n1ncc2cc(OCCc3ccc4c(n3)NCCC4)ccc21` (centres unmarked) [Example 104, 3-(5-(1,3-Dioxolan-2-yl)pyridin-3-yl)-3(5-(2-(5,6,7,8-tetrahydro-1,8-naphthyridin-2-yl)ethoxy)-1H-indazol-1yl)propanoic acid], for which the IC50 on human αVβ3 stood at 0.00261 µM; on human αVβ8, 1.8 µM; on human αVβ5 it was 0.00028 µM; at human αVβ1, 0.03 µM; at human αVβ6, 0.012 µM.

Turning to `COc1ncc(C(CC(=O)O)n2ncc3cc(OCCc4ccc5c(n4)NCCC5)ccc32)cn1` (centres unmarked) [Example 92, 3-(2-Methoxypyrimidin-5-yl)-3-(5-(2-(5,6,7,8-tetrahydro-1,8-naphthyridin-2-yl)ethoxy)-1H-indazol-1-yl)propanoic acid, TFA], the IC50 stood at 0.0024 µM on human αVβ3; 5 µM at human αVβ8; 0.00039 µM on human αVβ5; 0.21 µM at human αVβ1; 0.031 µM at human αVβ6.

Values taken from patent US10745384B2, “Indazole derivatives as αv integrin antagonists” (BRISTOL-MYERS SQUIBB COMPANY, priority 2016, dated 2020).
